Experimental data: patent US7148230B2, “Quinazoline derivatives” (AstraZeneca AB, priority 2003, dated 2006)

Legend:
[1] = molecular target: T1, erbB2 tyrosine kinase (Homo sapiens, UniProt P04626); experiment: Protein tyrosine kinase phosphorylation assay, Test (a), erbB2; assay type: biochemical; details: ATP at Km concentration; read-out: IC50 (nM) Test (a) (Inhibition of erbB2 tyrosine kinase protein phosphorylation)
T1 construct: Recombinant intracellular fragments of EGFR, erbB2 and erbB4; made in house; host or cells: baculovirus/Sf21 insect cells (cleared lysate used)
T1 sequence (P04626 676-1255 limits assumed): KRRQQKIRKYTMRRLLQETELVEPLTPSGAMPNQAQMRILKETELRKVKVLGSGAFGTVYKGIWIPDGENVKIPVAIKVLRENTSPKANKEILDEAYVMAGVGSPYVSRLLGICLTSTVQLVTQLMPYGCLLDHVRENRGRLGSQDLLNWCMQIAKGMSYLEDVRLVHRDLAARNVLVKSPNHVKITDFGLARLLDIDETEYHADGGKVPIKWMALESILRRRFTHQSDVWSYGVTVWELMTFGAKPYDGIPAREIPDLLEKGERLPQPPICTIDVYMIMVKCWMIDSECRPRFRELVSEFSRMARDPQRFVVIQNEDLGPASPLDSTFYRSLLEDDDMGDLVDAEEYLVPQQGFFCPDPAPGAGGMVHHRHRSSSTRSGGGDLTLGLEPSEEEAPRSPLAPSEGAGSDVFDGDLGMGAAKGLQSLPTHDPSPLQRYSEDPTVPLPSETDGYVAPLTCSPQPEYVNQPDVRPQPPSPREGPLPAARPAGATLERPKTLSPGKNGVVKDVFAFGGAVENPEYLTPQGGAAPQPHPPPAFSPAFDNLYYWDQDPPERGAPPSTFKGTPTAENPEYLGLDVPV
Protocol: (§1) This test measures the ability of a test compound to inhibit the phosphorylation of a tyrosine containing polypeptide substrate by an erbB tyrosine kinase enzyme.
(§2) Recombinant intracellular fragments of EGFR, erbB2 and erbB4 (accession numbers X00588, X03363 and L07868 respectively) were cloned and expressed in the baculovirus/Sf21 system. Lysates were prepared from these cells by treatment with ice-cold lysis buffer (20 mM N-2-hydroxyethylpiperizine-N′-2-ethanesulfonic acid (HEPES) pH7.5, 150 mM NaCl, 10% glycerol, 1% Triton X-100, 1.5 mM MgCl2, 1 mM ethylene glycol-bis(β-aminoethyl ether) N′,N′,N′,N′-tetraacetic acid (EGTA), plus protease inhibitors and then cleared by centrifugation.
(§3) Constitutive kinase activity of the recombinant protein was determined by its ability to phosphorylate a synthetic peptide (made up of a random co-polymer of Glutamic Acid, Alanine and Tyrosine in the ratio of 6:3:1). […]
(§4) The immobilised phospho-peptide product of the reaction was detected by immunological methods. […] After further washing, HRP activity in each well of the plate was measured colorimetrically using 22′-Azino-di-[3-ethylbenzthiazoline sulfonate (6)]diammonium salt crystals (ABTS™ from Roche) as a substrate.
(§5) Quantification of colour development and thus enzyme activity was achieved by the measurement of absorbance at 405 nm on a Molecular Devices ThermoMax microplate reader. […]

[2] = molecular target: T2, EGFR tyrosine kinase (Homo sapiens, UniProt P00533); experiment: Protein tyrosine kinase phosphorylation assay, Test (a), EGFR; assay type: biochemical; details: ATP at Km concentration; read-out: IC50 (nM) Test (a) (Inhibition of EGFR tyrosine kinase protein phosphorylation)
T2 construct: Recombinant intracellular fragments of EGFR, erbB2 and erbB4; made in house; host or cells: baculovirus/Sf21 insect cells (cleared lysate used)
T2 sequence (P00533 669-1210 limits assumed): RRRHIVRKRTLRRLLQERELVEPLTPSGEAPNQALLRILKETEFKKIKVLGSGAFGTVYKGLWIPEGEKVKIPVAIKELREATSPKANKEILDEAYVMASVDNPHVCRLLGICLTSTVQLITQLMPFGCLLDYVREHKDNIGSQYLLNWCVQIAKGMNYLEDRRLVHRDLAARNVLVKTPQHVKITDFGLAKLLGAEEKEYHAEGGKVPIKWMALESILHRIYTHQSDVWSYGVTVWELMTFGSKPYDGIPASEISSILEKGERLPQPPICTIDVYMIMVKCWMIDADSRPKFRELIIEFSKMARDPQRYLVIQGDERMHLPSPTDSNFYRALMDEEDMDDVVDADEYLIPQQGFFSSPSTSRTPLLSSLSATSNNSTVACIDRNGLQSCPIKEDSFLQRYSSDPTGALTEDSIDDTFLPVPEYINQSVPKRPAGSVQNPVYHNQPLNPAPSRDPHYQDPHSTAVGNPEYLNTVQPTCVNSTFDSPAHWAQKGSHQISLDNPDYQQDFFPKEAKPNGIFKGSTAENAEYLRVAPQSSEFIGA
Protocol: as §1, §2, §3, §4, §5

- IC50 [1]: 59 nM
- IC50 [2]: 3 nM
- melting point: 195.5 to 196.5 °C
SMILES: COc1cc2ncnc(Nc3cccc(Cl)c3F)c2cc1OC1CCN(C(=O)CO)CC1 [Example 1, 4-(3-chloro-2-fluoroanilino)-6-[1-(hydroxyacetyl)piperidin-4-yloxy]-7-methoxyquinazoline]
